Test results: patent US20260354380A1, “PYRAZOLO PESTICIDAL COMPOUNDS” (BASF SE, priority 2022, published 2026)

Key:
Assay type in all cases: in vivo
[1] = tested on: Dichromothrips corbetti; assay: Action on Orchid Thrips (Dichromothrips corbetti); settings: 300 ppm, adults, 72 hours after treatment
Procedure: Example B2: Action on Orchid Thrips (Dichromothrips corbetti)
Dichromothrips corbetti adults used for bioassay were obtained from a colony maintained continuously under laboratory conditions. For testing purposes, the test compound is diluted in a 1:1 mixture of acetone: water (vol: vol), plus Kinetic® HV at a rate of 0.01% v/v.
Thrips potency of each compound was evaluated by using a floral-immersion technique. All petals of individual, intact orchid flowers were dipped into treatment solution and allowed to dryin Petri dishes. Treated petals were placed into individual re-sealable plastic along with about 20 adult thrips. All test arenas were held under continuous light and a temperature of about 28 °C for duration of the assay. After 3 days, the numbers of live thrips were counted on each petal. The percent mortality was recorded 72 hours after treatment.

[2] = tested on: Anthonomus grandis; assay: Action on Boll Weevil (Anthonomus grandis); settings: 800 ppm, egg and larval mortality, 5 days
Procedure, shortened: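 Compounds in 75:25 water:DMSO sprayed at several concentrations onto insect diet in microtiter wells holding 5-10 eggs, two replicates. Plates kept 5 days at about 25±1 °C and 75±5% RH; egg and larval mortality scored visually.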

[3] = tested on: Plutella xylostella; assay: Action on Diamond Back Moth (Plutella xylostella), cabbage leaf dip, 3rd instar larvae; settings: 300 ppm, 3rd instar larvae, 72 hours after treatment
Procedure, shortened: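 Cabbage leaves dipped in compound solution (1:1 water:acetone, 0.01% v/v surfactant), air-dried, then infested with ten 3rd-instar larvae in petri dishes on moist filter paper. Mortality scored at 72 h after treatment; feeding damage rated on a 0–100% scale.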

[4] = tested on: Aedes aegypti; assay: whole plant or invertebrate; settings: for mortality in comparison with untreated controls: 800 ppm, larvae, 2 days
Procedure, shortened: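 Freshly hatched larvae (5-15 per well) were held in tap water, and compounds formulated in 25% DMSO/water were sprayed onto diet at several concentrations in duplicate. Larval mortality was scored visually after 2 days at 28±1 °C, 80±5% RH.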

[5] = tested on: Heliothis virescens; assay: Action on Tobacco Budworm (Heliothis virescens); settings: 800 ppm, egg and larval mortality, 5 days
Procedure, shortened: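 Compounds in 25% DMSO/75% water were sprayed at several concentrations onto insect diet in microtiter wells holding 15-25 eggs, two replications. After 5 days at about 28±1 °C and 80±5% RH, egg and larval mortality was scored visually.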

[6] = tested on: Spodoptera eridania; assay: Action on Southern Armyworm (Spodoptera eridania), 2nd Instar Larvae; settings: 300 ppm, 2nd instar larvae, 4 days after treatment
Procedure, shortened: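 Compounds in 50% acetone/water with 0.01% nonionic surfactant sprayed electrostatically onto Lima bean plants at 1st true leaf stage. After drying, 10–11 2nd-instar larvae bagged with each pot, kept about 25 °C, 20–40% RH. Mortality and reduced feeding scored at 4 days vs untreated plants.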

[7] = tested on: Plutella xylostella; assay: Action on Diamond Back Moth (Plutella xylostella), microtiter plates, insect diet, eggs; settings: 800 ppm; egg and larval mortality; 5 days
Procedure: Example B8: Action on Diamond Back Moth (Plutella xylostella)
For evaluating control of diamond back moth (Plutella xylostella) the test unit consisted of 96-well-microtiter plates containing an insect diet and 15-25 P. xylostella eggs. The compounds or mixtures were formulated using a solution containing 75% water and 25% DMSO. Different concentrations of formulated compounds or mixtures were sprayed onto the insect diet at 5 μl, using a custom-built micro atomizer, at two replications. For experimental mixtures in these tests identical volumes of both mixing partners at the desired concentrations respectively, were mixed together. After application, microtiter plates were incubated at 28±1 °C, 80±5% RH for 5 days. Egg and larval mortality was then visually assessed.

Cc1ccc(C(C)C)c(N2C(=O)CSC2=NC(=O)Nc2ccc(-n3cc(NC(=O)c4ccc(OC(F)(F)F)cc4)c(C)n3)cc2)c1 [Example C-9]
mortality in comparison with untreated controls [1]: at least 75% | mortality in comparison with untreated controls [2]: at least 75% | mortality in comparison with untreated controls [3]: at least 75% | mortality in comparison with untreated controls [4]: at least 50% | mortality in comparison with untreated controls [5]: at least 75% | mortality in comparison with untreated controls [6]: at least 75%

Cc1ccc(C(C)C)c(N2C(=O)CS/C2=N\C(=O)Nc2ccc(-n3cc(NC(=O)c4ccc(OC(F)(F)F)cc4)c(C)n3)cc2C)c1 [Example C-1, N-[1-[4-[[(Z)-[3-(2-isopropyl-5-methyl-phenyl)-4-oxo-thiazolidin-2-ylidene]carbamoyl]amino]-3-methyl-phenyl]-3-methyl-pyrazol-4-yl]-4-(trifluoromethoxy)benzamide]
mortality at 300 ppm ([1]; Dichromothrips corbetti, read-out: mortality in comparison with untreated controls): ≥ 75% | mortality at 800 ppm ([2]; Anthonomus grandis, 120 h, read-out: mortality in comparison with untreated controls): ≥ 75% | mortality at 300 ppm ([3]; Plutella xylostella, foliar, read-out: mortality in comparison with untreated controls): ≥ 75% | mortality at 800 ppm ([4]; Aedes aegypti, 48 h, read-out: mortality in comparison with untreated controls): ≥ 50% | mortality at 800 ppm ([5]; Heliothis virescens, 120 h, read-out: mortality in comparison with untreated controls): ≥ 75% | mortality at 300 ppm ([6]; Spodoptera eridania, 96 h, read-out: mortality in comparison with untreated controls): ≥ 75%

Cc1ccc(C(C)C)c(N2CCSC2=NC(=O)Nc2ccc(-n3nc(C)c(NC(=O)c4ccc(OC(F)(F)F)cc4)c3C)cc2Cl)c1 [Example C-128]
mortality in comparison with untreated controls [2]: at least 75% | mortality in comparison with untreated controls [7]: at least 75% | mortality in comparison with untreated controls [4]: at least 50% | mortality in comparison with untreated controls [5]: at least 75% | mortality in comparison with untreated controls [6]: at least 75%

Cc1ccc(C(C)C)c(N2C(=O)CS/C2=N\C(=O)Nc2ccc(-n3nc(C)c(NC(=O)c4ccc(OC(F)(F)F)cc4)c3C)nc2)c1 [Example C-22]
mortality in comparison with untreated controls [1]: at least 75% | mortality in comparison with untreated controls [3]: at least 75% | mortality in comparison with untreated controls [6]: at least 75%

Cc1ccc(C(C)C)c(N2C(=O)CS/C2=N\C(=O)Nc2cc(C)c(-n3nc(C)c(NC(=O)c4ccc(OC(F)(F)F)cc4)c3C)cc2Cl)c1 [Example C-99]
mortality in comparison with untreated controls [2]: at least 75% | mortality in comparison with untreated controls [7]: at least 75% | mortality in comparison with untreated controls [4]: at least 50% | mortality in comparison with untreated controls [5]: at least 75% | mortality in comparison with untreated controls [6]: at least 75%

COc1ccc(C(C)C)c(N2C(=O)CSC2=NC(=O)Nc2ccc(-n3nc(C)c(NC(=O)c4ccc(OC(F)(F)F)cc4)c3C)cc2Cl)c1 [Example C-44]
mortality in comparison with untreated controls [1]: at least 75% | mortality in comparison with untreated controls [2]: at least 75% | mortality in comparison with untreated controls [3]: at least 75% | mortality in comparison with untreated controls [4]: at least 50% | mortality in comparison with untreated controls [5]: at least 75%

Cc1nn(-c2ccc(NC(=O)NC(=S)Nc3ccccc3C(C)C)cc2)cc1NC(=O)c1ccc(OC(F)(F)F)cc1 [Example C-126]
mortality in comparison with untreated controls [2]: at least 75% | mortality in comparison with untreated controls [7]: at least 75% | mortality in comparison with untreated controls [4]: at least 50% | mortality in comparison with untreated controls [5]: at least 75% | mortality in comparison with untreated controls [6]: at least 75%

Cc1ccc(C(C)C)c(N2C(=O)CS/C2=N\C(=O)Nc2c(C)cc(-n3nc(C)c(NC(=O)c4ccc(OC(F)(F)F)cc4)c3C)cc2Cl)c1 [Example C-105]
mortality in comparison with untreated controls [2]: at least 75% | mortality in comparison with untreated controls [7]: at least 75% | mortality in comparison with untreated controls [4]: at least 50% | mortality in comparison with untreated controls [5]: at least 75% | mortality in comparison with untreated controls [6]: at least 75%

Cc1ccc(C(C)C)c(N2C(=O)CSC2=NC(=O)Nc2ccc(-n3nc(C)c(NC(=O)c4ccc(Br)cc4)c3C)cc2)c1 [Example C-116]
mortality in comparison with untreated controls [2]: at least 75% | mortality in comparison with untreated controls [7]: at least 75% | mortality in comparison with untreated controls [4]: at least 50% | mortality in comparison with untreated controls [5]: at least 75% | mortality in comparison with untreated controls [6]: at least 75%

Cc1ccc(C(C)C)c(N2C(=O)CSC2=NC(=O)Nc2ccc(-n3nc(C)c(NC(=O)c4ccc(Cl)c(C#N)c4)c3C)cc2)c1 [Example C-118]
mortality in comparison with untreated controls [2]: at least 75% | mortality in comparison with untreated controls [3]: at least 75% | mortality in comparison with untreated controls [7]: at least 75%

CCN(C(=O)c1ccc(Cl)c(Cl)c1)c1c(C)nn(-c2ccc(NC(=O)/N=C3\SCC(=O)N3c3cc(C)ccc3C(C)C)c(Cl)c2)c1C [Example C-103]
mortality in comparison with untreated controls [2]: at least 75% | mortality in comparison with untreated controls [7]: at least 75% | mortality in comparison with untreated controls [4]: at least 50% | mortality in comparison with untreated controls [5]: at least 75% | mortality in comparison with untreated controls [6]: at least 75%

Cc1ccc(C(C)C)c(N2C(=O)CSC2=NC(=O)Nc2ccc(-n3nc(C)c(NC(=O)c4ccc(F)cc4)c3C)cc2)c1 [Example C-112]
mortality in comparison with untreated controls [2]: at least 75% | mortality in comparison with untreated controls [7]: at least 75% | mortality in comparison with untreated controls [4]: at least 50% | mortality in comparison with untreated controls [5]: at least 75% | mortality in comparison with untreated controls [6]: at least 75%

Cc1ccc(C(C)C)c(N2C(=O)CSC2=NC(=O)Nc2ccc(-n3nc(C)c(NC(=O)c4cc(F)c(F)cc4F)c3C)cc2)c1 [Example C-120]
mortality in comparison with untreated controls [2]: at least 75% | mortality in comparison with untreated controls [7]: at least 75% | mortality in comparison with untreated controls [4]: at least 50% | mortality in comparison with untreated controls [5]: at least 75% | mortality in comparison with untreated controls [6]: at least 75%

Cc1ccc(C(C)C)c(N2C(=O)CS/C2=N\C(=O)Nc2ccc(-n3nc(C)c(NC(=O)c4ccc(OC(F)(F)F)cc4)c3NCC3OCCO3)cc2)c1 [Example C-100]
mortality in comparison with untreated controls [2]: at least 75% | mortality in comparison with untreated controls [7]: at least 75% | mortality in comparison with untreated controls [4]: at least 50% | mortality in comparison with untreated controls [5]: at least 75% | mortality in comparison with untreated controls [6]: at least 75%

Cc1ccc(C(C)C)c(N2C(=O)CS/C2=N\C(=O)Nc2ccc(-n3nc(C)c(NC(=O)c4ccc(Cl)cc4F)c3C)cc2Cl)c1 [Example C-106]
mortality in comparison with untreated controls [2]: at least 75% | mortality in comparison with untreated controls [7]: at least 75% | mortality in comparison with untreated controls [4]: at least 50% | mortality in comparison with untreated controls [5]: at least 75% | mortality in comparison with untreated controls [6]: at least 75%

Cc1ccc(C(C)C)c(N2C(=O)CSC2=NC(=O)Nc2ccc(-n3nc(C)c(NC(=O)c4cc(F)c(F)c(F)c4)c3C)cc2)c1 [Example C-117]
mortality in comparison with untreated controls [2]: at least 75% | mortality in comparison with untreated controls [7]: at least 75% | mortality in comparison with untreated controls [4]: at least 50% | mortality in comparison with untreated controls [5]: at least 75% | mortality in comparison with untreated controls [6]: at least 75%

Cc1ccc(C(C)C)c(N2C(=O)CS/C2=N\C(=O)Nc2ccc(-n3nc(C)c(NC(=O)c4ccc(OC(F)(F)F)cc4)c3N)cc2)c1 [Example C-101]
mortality in comparison with untreated controls [2]: at least 75% | mortality in comparison with untreated controls [7]: at least 75% | mortality in comparison with untreated controls [4]: at least 50% | mortality in comparison with untreated controls [5]: at least 75% | mortality in comparison with untreated controls [6]: at least 75%

Cc1ccc(C(C)C)c(N2C(=O)CSC2=NC(=O)Nc2ccc(-n3nc(C)c(NC(=O)c4ccc(Cl)cc4F)c3C)cc2)c1 [Example C-110]
mortality in comparison with untreated controls [2]: at least 75% | mortality in comparison with untreated controls [7]: at least 75% | mortality in comparison with untreated controls [4]: at least 50% | mortality in comparison with untreated controls [5]: at least 75% | mortality in comparison with untreated controls [6]: at least 75%
